As usually defined, the inhibition is the change of the read-out against control, counted positive when it falls. In general, IC50 refers to the concentration that gives 50% inhibition.

The results in this text go back to patent US7196110B2, “N-substituted tricyclic 3-aminopyrazoles as inhibitors for the treatment of cell proliferative disorders” (Janssen Phamaceutica N.V., priority 2002, dated 2007).

The target in the assay is T1, PDGF-receptor beta enzyme comprising the tyrosine kinase domain (Homo sapiens, UniProt P09619).
T1 construct: from amino acid 545 to 1106 of GenBank Access NO: AAA36427
As to the kind of experiment: Inhibition of PDGF-receptor kinase activity (cell-free, PLC1 peptide, 33P Flashplate). Type of assay: biochemical. Particulars: PDGF-R kinase activity; for inhibition at 10 µM: compound at 10 uM, read-out: Percent Inhibition @ 10 uM; for IC50: read-out: IC50. The essentials: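 The IC50 is the inhibitor level halving kinase activity relative to inhibitor-free wells, measured as 33P captured on a streptavidin-bound biotin-PLC1 peptide. The reaction ran 60 min at 30 °C in pH 8 Tris buffer with 1 mM DTT, 5 μM ATP and the 545–1106 kinase-domain enzyme.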

T1 sequence (P09619 545-1106): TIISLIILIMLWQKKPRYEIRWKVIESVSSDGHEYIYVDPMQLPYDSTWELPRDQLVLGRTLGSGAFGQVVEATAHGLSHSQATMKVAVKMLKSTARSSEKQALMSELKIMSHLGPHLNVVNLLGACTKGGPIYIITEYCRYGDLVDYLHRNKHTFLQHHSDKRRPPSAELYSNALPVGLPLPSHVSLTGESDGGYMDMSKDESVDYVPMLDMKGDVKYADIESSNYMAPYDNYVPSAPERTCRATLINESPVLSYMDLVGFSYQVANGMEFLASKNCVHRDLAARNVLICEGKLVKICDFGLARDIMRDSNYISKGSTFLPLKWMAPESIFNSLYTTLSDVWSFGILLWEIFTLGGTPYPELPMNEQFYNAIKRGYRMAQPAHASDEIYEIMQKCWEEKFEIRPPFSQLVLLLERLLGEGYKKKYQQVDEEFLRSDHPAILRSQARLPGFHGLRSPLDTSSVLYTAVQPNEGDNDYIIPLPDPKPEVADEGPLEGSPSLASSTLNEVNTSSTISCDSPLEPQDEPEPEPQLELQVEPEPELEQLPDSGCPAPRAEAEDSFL

For `CN(C)CCCOc1ccc2c(c1)Cc1c-2n[nH]c1Nc1ccc(F)cc1` [Compound 159, [6-(3-Dimethylamino-propoxy)-2,4-dihydro-indeno[1,2-c]pyrazol-3-yl]-(4-fluoro-phenyl)-amine], the inhibition at 10 µM was 92.5% and the IC50 worked out at 98.9 nM.
On the same counts, the results for `CN(C)CCCOc1ccc2c(c1)Cc1c-2n[nH]c1Nc1cccnc1` [Compound 161, [6-(3-Dimethylamino-propoxy)-2,4-dihydro-indeno[1,2-c]pyrazol-3-yl]-pyridin-3-yl-amine] are 84% and 382 nM.
In the same order, the values of `COc1ccc(OC)c(Nc2[nH]nc3c2Cc2cc(OCCCN(C)C)ccc2-3)c1` [Compound 162, (2,5-Dimethoxy-phenyl)-[6-(3-dimethylamino-propoxy)-2,4-dihydro-indeno[1,2-c]pyrazol-3-yl]-amine] are 21.5% and 54900 nM.
On the same counts, the results for `CN(C)CCCOc1ccc2c(c1)Cc1c-2n[nH]c1Nc1cc(F)ccc1F` [Compound 163, (2,5-Difluoro-phenyl)-[6-(3-dimethylamino-propoxy)-2,4-dihydro-indeno[1,2-c]pyrazol-3-yl]-amine] are 32% and 22700 nM.
On to `CN(C)CCCOc1ccc2c(c1)Cc1c-2n[nH]c1Nc1cccc(C(F)(F)F)c1` [Compound 165, [6-(3-Dimethylamino-propoxy)-2,4-dihydro-indeno[1,2-c]pyrazol-3-yl]-(3-trifluoromethyl-phenyl)-amine], for which the inhibition at 10 µM came to 92.5% and the IC50 worked out at 101 nM.
Turning to `COCCCOc1cc2c(cc1OC)-c1n[nH]c(Nc3ccc(F)c(Cl)c3)c1C2` [Compound 166, (3-Chloro-4-fluoro-phenyl)-[7-methoxy-6-(3-methoxy-propoxy)-2,4-dihydro-indeno[1,2-c]pyrazol-3-yl]-amine], the inhibition at 10 µM amounted to 88% and the IC50 came out at 85 nM.
On the same counts, the results for `CC(C)Oc1cc2c(cc1OC(C)C)-c1n[nH]c(Nc3ccc(F)c(Cl)c3)c1C2` [Compound 167, (3-Chloro-4-fluoro-phenyl)-(6,7-diisopropoxy-2,4-dihydro-indeno[1,2-c]pyrazol-3-yl)-amine] are 92% and 511 nM.
In the same order, the values of `COc1cccc(Nc2[nH]nc3c2Cc2cc(OC(C)C)c(OC(C)C)cc2-3)c1` [Compound 168, (6,7-Diisopropoxy-2,4-dihydro-indeno[1,2-c]pyrazol-3-yl)-(3-methoxy-phenyl)-amine] are 91% and 68.8 nM.
In the same order, the values of `CC(C)Oc1cc2c(cc1OC(C)C)-c1n[nH]c(Nc3cccc(F)c3)c1C2` [Compound 169, (6,7-Diisopropoxy-2,4-dihydro-indeno[1,2-c]pyrazol-3-yl)-(3-fluoro-phenyl)-amine] are 89% and 36 nM.
Regarding `COc1ccc(Nc2[nH]nc3c2Cc2ccc(OC)cc2-3)cc1` [Compound 171, (7-Methoxy-2,4-dihydro-indeno[1,2-c]pyrazol-3-yl)-(4-methoxy-phenyl)-amine], the inhibition at 10 µM came out at 92.5% and the IC50 came to 123 nM.
As to `COc1ccc2c(c1)-c1n[nH]c(Nc3cccnc3)c1C2` [Compound 173, (7-Methoxy-2,4-dihydro-indeno[1,2-c]pyrazol-3-yl)-pyridin-3-yl-amine], the inhibition at 10 µM came out at 87% and the IC50 was found to be 215 nM.
On the same counts, the results for `COc1ccc(OC)c(Nc2[nH]nc3c2Cc2ccc(OC)cc2-3)c1` [Compound 174, (2,5-Dimethoxy-phenyl)-(7-methoxy-2,4-dihydro-indeno[1,2-c]pyrazol-3-yl)-amine] are 83% and 346 nM.
On the same counts, the results for `COc1ccc(Nc2[nH]nc3c2Cc2ccc(OC)cc2-3)c(OC)c1` [Compound 175, (2,4-Dimethoxy-phenyl)-(7-methoxy-2,4-dihydro-indeno[1,2-c]pyrazol-3-yl)-amine] are 71% and 3930 nM.
In the same order, the values of `COc1ccc2c(c1)-c1n[nH]c(Nc3cc(F)ccc3F)c1C2` [Compound 176, (2,5-Difluoro-phenyl)-(7-methoxy-2,4-dihydro-indeno[1,2-c]pyrazol-3-yl)-amine] are 46.5% and 318 nM.
`COc1ccc2c(c1)-c1n[nH]c(Nc3ccc(OC(F)(F)F)cc3)c1C2` [Compound 177, (7-Methoxy-2,4-dihydro-indeno[1,2-c]pyrazol-3-yl)-(4-trifluoromethoxy-phenyl)-amine]: the inhibition at 10 µM was found to be 65.5% and the IC50 came out at 523 nM.
On the same counts, the results for `COc1ccc2c(c1)-c1n[nH]c(Nc3ccc(C(F)(F)F)cc3)c1C2` [Compound 178, (7-Methoxy-2,4-dihydro-indeno[1,2-c]pyrazol-3-yl)-(4-trifluoromethyl-phenyl)-amine] are 98.5% and 132 nM.
In the same order, the values of `COc1ccc(Nc2[nH]nc3c2Cc2ccc(C)cc2-3)cc1` [Compound 183, (4-Methoxy-phenyl)-(7-methyl-2,4-dihydro-indeno[1,2-c]pyrazol-3-yl)-amine] are 53% and 545 nM.
With `COc1ccc(OC)c(Nc2[nH]nc3c2Cc2ccc(C)cc2-3)c1` [Compound 184, (2,5-Dimethoxy-phenyl)-(7-methyl-2,4-dihydro-indeno[1,2-c]pyrazol-3-yl)-amine], the inhibition at 10 µM is 94% and the IC50 turned out to be 1100 nM.
In the same order, the values of `Cc1ccc2c(c1)-c1n[nH]c(Nc3ccc(OC(F)(F)F)cc3)c1C2` [Compound 186, (7-Methyl-2,4-dihydro-indeno[1,2-c]pyrazol-3-yl)-(4-trifluoromethoxy-phenyl)-amine] are 78% and 414 nM.
Consider `Cc1ccc2c(c1)-c1n[nH]c(Nc3cccc(C(F)(F)F)c3)c1C2` [Compound 187, (7-Methyl-2,4-dihydro-indeno[1,2-c]pyrazol-3-yl)-(3-trifluoromethyl-phenyl)-amine], for which the inhibition at 10 µM is 35%.
As for `COc1ccc(Nc2[nH]nc3c2Cc2cc(Cl)ccc2-3)cc1` [Compound 189, (6-Chloro-2,4-dihydro-indeno[1,2-c]pyrazol-3-yl)-(4-methoxy-phenyl)-amine], the inhibition at 10 µM was determined as 92% and the IC50 came out at 199 nM.
In the same order, the values of `Fc1cccc(Nc2[nH]nc3c2Cc2cc(Cl)ccc2-3)c1` [Compound 191, (6-Chloro-2,4-dihydro-indeno[1,2-c]pyrazol-3-yl)-(3-fluoro-phenyl)-amine] are 88% and 68.6 nM.
In the case of `Fc1ccc(F)c(Nc2[nH]nc3c2Cc2cc(Cl)ccc2-3)c1` [Compound 192, (6-Chloro-2,4-dihydro-indeno[1,2-c]pyrazol-3-yl)-(2,5-difluoro-phenyl)-amine], the inhibition at 10 µM amounted to 67% and the IC50 was determined as 103 nM.
As to `FC(F)(F)c1ccc(Nc2[nH]nc3c2Cc2cc(Cl)ccc2-3)cc1` [Compound 193, (6-Chloro-2,4-dihydro-indeno[1,2-c]pyrazol-3-yl)-(4-trifluoromethyl-phenyl)-amine], the inhibition at 10 µM amounted to 49%.
Turning to `FC(F)(F)Oc1ccc(Nc2[nH]nc3c2Cc2cc(Cl)ccc2-3)cc1` [Compound 194, (6-Chloro-2,4-dihydro-indeno[1,2-c]pyrazol-3-yl)-(4-trifluoromethoxy-phenyl)-amine], the inhibition at 10 µM came out at 87% and the IC50 came out at 2610 nM.
On the same counts, the results for `FC(F)(F)c1cc(Nc2[nH]nc3c2Cc2cc(Cl)ccc2-3)cc(C(F)(F)F)c1` [Compound 195, (3,5-Bis-trifluoromethyl-phenyl)-(6-chloro-2,4-dihydro-indeno[1,2-c]pyrazol-3-yl)-amine] are 76% and 2280 nM.
On the same counts, the results for `CN(C)c1ccc(Nc2[nH]nc3c2Cc2cc(Cl)ccc2-3)cc1` [Compound 196, N-(6-Chloro-2,4-dihydro-indeno[1,2-c]pyrazol-3-yl)-N′,N′-dimethyl-benzene-1,4-diamine] are 70% and 1290 nM.
With `Cc1cccc(Nc2[nH]nc3c2Cc2cc(Cl)ccc2-3)c1` [Compound 197, (6-Chloro-2,4-dihydro-indeno[1,2-c]pyrazol-3-yl)-m-tolyl-amine], the inhibition at 10 µM worked out at 8%.
As for `Cc1ccc(Nc2[nH]nc3c2Cc2cc(Cl)ccc2-3)cc1` [Compound 198, (6-Chloro-2,4-dihydro-indeno[1,2-c]pyrazol-3-yl)-p-tolyl-amine], the inhibition at 10 µM was 72% and the IC50 is 138 nM.
Consider `COc1cc2c(cc1OC)-c1n[nH]c(Nc3cc(C)cc(C)c3)c1C2` [Compound 206, (6,7-Dimethoxy-2,4-dihydro-indeno[1,2-c]pyrazol-3-yl)-(3,5-dimethyl-phenyl)-amine], for which the inhibition at 10 µM was found to be 63% and the IC50 was 640 nM.
With `CCOC(=O)c1cccc(Nc2[nH]nc3c2Cc2cc(OC)c(OC)cc2-3)c1` [Compound 210, 3-(6,7-Dimethoxy-2,4-dihydro-indeno[1,2-c]pyrazol-3-ylamino)-benzoic acid ethyl ester], the inhibition at 10 µM stood at 90% and the IC50 turned out to be 67.2 nM.
On the same counts, the results for `COc1cc2c(cc1OC)-c1n[nH]c(Nc3cccc(SC(F)(F)F)c3)c1C2` [Compound 211, (6,7-Dimethoxy-2,4-dihydro-indeno[1,2-c]pyrazol-3-yl)-(3-trifluoromethylsulfanyl-phenyl)-amine] are 87% and 50 nM.
As to `COc1cc2c(cc1OC)-c1n[nH]c(Nc3ccc(F)c(C(F)(F)F)c3)c1C2` [Compound 212, (6,7-Dimethoxy-2,4-dihydro-indeno[1,2-c]pyrazol-3-yl)-(4-fluoro-3-trifluoromethyl-phenyl)-amine], the inhibition at 10 µM was 84% and the IC50 was found to be 775 nM.
